# Measurements as given in paper PMC11189555, “Aryl amino acetamides prevent Plasmodium falciparum ring development via targeting the lipid-transfer protein PfSTART1” (Nature Communications, 2024).
# Read-outs that look alike come from different tables or passages of the source.
# What was measured:
# [1] = tested on: 3D7 P. falciparum parasites; assay: Growth inhibition assay (72 h, LDH activity); type: cell-based, Plasmodium falciparum; conditions: for EC50: Plasmodium falciparum
# Procedure: Parasite growth assays with inhibitory compounds were performed as per[11] and are fully described in the Supplementary Information. […]
# Growth inhibition assays. Synchronised ring-stage parasites (0.3-0.6% parasitemia, 2% haematocrit) were grown for 72 h in a serial-dilution of the compound under […]
# and compound 4. Note that M-833 was first purchased from MolPort (MolPort -002-267-916) then made in-house at WEHI: the differences observed in EC50s across experiments are attributed to the different batches of M -833. For some experiments, 0, 0.25 or 2.5 mM of glucosamine (GlcN) was also added. Experiments were set up in technical duplicates or triplicates. Following a freeze -thaw cycle, lactate dehydrogenase (LDH) activity was assessed as an indicator of parasite growt h 5. 30 μL of parasite culture was incubated for 30 min in the dark with 75 μL Malstat mixture (0.1 M Tris pH 9.0, 20 g/L lactic acid, pH 7.5, 0.2% Triton-X100, 0.5 g/L acetylpyridine adenine dinucleotide (APAD, Sigma), 200 μg/mL nitroblue tetrazolium (NBT; Sigma), 1 μg/mL phenozine ethosulfate (PES; Sigma)). Absorbance was then measured at 650 nm, transformed using the formula below, plotted against the logarithm of the concentrations, and a non-linear regression (log(inhibitor) vs. response, variable slope) was calculated using GraphPad Prism to assess the half-inhibitory […]
# Growth inhibition % = (1 − average(sample)− average(uRBC)) ∗ 100 […]
# The DMSO samples were also used to assess growth of parasite in the presence of 0.25 and 2.5 mM GlcN (normalised by DMSO in 0 mM GlcN). […]
# [2] = molecular target: T1, recombinant PfSTART1(WT) (I149-V394) (Plasmodium falciparum, UniProt Q8I298); assay: Isothermal titration calorimetry; type: binding; conditions: ITC
# T1 construct: START domain alone (I149-V394 from PF3D7_0104200); 8xHis tag (N); TEV protease cleavage site (N); made in house; host or cells: Sf21 insect cells (baculovirus)
# Text: Codon optimised (Spodoptera frugiperda, Sf) START domain alone (I149-V394 from PF3D7_0104200) was synthesised by Integrated DNA Technologies and cloned into a modified baculovirus transfer vector (pAcGP67-A) with a N-terminal GP67-signal sequence, 8xHis tag, and TEV protease cleavage site. Recombinant baculovirus was generated via the flashBACTM Baculovirus Expression System using Sf21 cells (Life Technologies), amplified to reach a third passage viral stock, and 1.5% used to infect Sf21 for protein expression. After incubation for three days at 28 °C, media containing secreted protein was harvested by centrifugation and supplemented with 50 mM Tris pH 7.5, 20 mM MgCl2, 100 mM NaCl, and 10-20 mM imidazole. The supplemented protein sample was purified by nickel affinity chromatography (HisTrap Excel 5 mL, Cytiva), and eluted with 20 mM Tris pH 7.5, 500 mM NaCl, 300-500 mM imidazole. Eluted fractions were further purified using size-exclusion chromatography (Superdex S75 16/600 or Superdex 10/300, Cytiva) with the column pre-equilibrated with 20 mM HEPES pH 7.5, 150 mM NaCl, and peak-containing fractions concentrated and stored at -80 °C until required. If required, prior to ITC, a second size-exclusion chromatography step was performed to remove soluble aggregates.
# ITC experiments were performed on a MicroCal PEAQ-ITC calorimeter at 25 °C, with a stirring speed of 750 rpm and a reference power of 5 μcal/sec. 500 μM M-833 series inhibitor solutions were diluted to 10 μM in 50 mM NaPO4^-3 (pH 7.4), 150 mM NaCl with a final DMSO concentration of 2% (v/v) (cell sample). PfSTART1 protein was dialysed extensively against 50 mM NaPO4^-3 (pH 7.4), 150 mM NaCl, before diluting to 90 μM in the same buffer with 2% (v/v) DMSO (syringe sample). The first injection was 0.4 μL over a 0.8 s duration, and the remaining 19 injections were 2 μL of 4 s duration, with 150 s injection spacing. Data were collected and analysed using the PEAQ-ITC software (MicroCal) and fit by a single site binding model. A fitted offset (constant control heat) was also applied to the integrated heat.
# [3] = 3D7, 72 h, Supplementary Table 1, 3D7, 72 h, read-out: EC50
# [4] = 3D7, Fig 4A, 3D7 parasites, read-out: Pf 3D7 EC50 (SD)
# T1 sequence (Q8I298 entry or part of it): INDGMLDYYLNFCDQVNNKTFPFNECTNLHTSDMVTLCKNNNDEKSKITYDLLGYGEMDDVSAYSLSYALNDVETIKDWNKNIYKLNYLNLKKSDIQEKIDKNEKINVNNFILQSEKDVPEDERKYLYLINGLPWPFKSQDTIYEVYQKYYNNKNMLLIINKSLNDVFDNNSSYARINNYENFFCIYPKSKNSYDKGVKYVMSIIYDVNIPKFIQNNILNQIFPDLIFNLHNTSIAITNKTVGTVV
compound,measurement,setting,value
CC(C)(Oc1ccc(Cl)c(S(=O)(=O)N2CCOCC2)c1)C(=O)Nc1ccc(F)c(Cl)c1 [compound 3],(av-uRBC) / (DMSO-uRBC) x100,"[1]; 3D7, conc. 3.04832 nM, Biological replicate 1 (2021-10-25)",98.9546
same,(av-uRBC) / (DMSO-uRBC) x100,"[1]; 3D7, conc. 3.04832 nM, Biological replicate 2 (2021-11-03)",99.5733
same,(av-uRBC) / (DMSO-uRBC) x100,"[1]; 3D7, conc. 3.04832 nM, Biological replicate 3 (2021-11-11)",55.9066
same,(av-uRBC) / (DMSO-uRBC) x100,"[1]; 3D7, conc. 9.14495 nM, Biological replicate 1 (2021-10-25)",81.8447
same,(av-uRBC) / (DMSO-uRBC) x100,"[1]; 3D7, conc. 9.14495 nM, Biological replicate 2 (2021-11-03)",87.421
same,(av-uRBC) / (DMSO-uRBC) x100,"[1]; 3D7, conc. 9.14495 nM, Biological replicate 3 (2021-11-11)",38.3092
same,(av-uRBC) / (DMSO-uRBC) x100,"[1]; 3D7, conc. 27.4348 nM, Biological replicate 1 (2021-10-25)",30.9131
same,(av-uRBC) / (DMSO-uRBC) x100,"[1]; 3D7, conc. 27.4348 nM, Biological replicate 2 (2021-11-03)",28.899
same,(av-uRBC) / (DMSO-uRBC) x100,"[1]; 3D7, conc. 27.4348 nM, Biological replicate 3 (2021-11-11)",16.2848
same,(av-uRBC) / (DMSO-uRBC) x100,"[1]; 3D7, conc. 82.3045 nM, Biological replicate 1 (2021-10-25)",11.7409
same,(av-uRBC) / (DMSO-uRBC) x100,"[1]; 3D7, conc. 82.3045 nM, Biological replicate 2 (2021-11-03)",11.9543
same,(av-uRBC) / (DMSO-uRBC) x100,"[1]; 3D7, conc. 82.3045 nM, Biological replicate 3 (2021-11-11)",7.809
same,(av-uRBC) / (DMSO-uRBC) x100,"[1]; 3D7, conc. 246.914 nM, Biological replicate 1 (2021-10-25)",8.8892
same,(av-uRBC) / (DMSO-uRBC) x100,"[1]; 3D7, conc. 246.914 nM, Biological replicate 2 (2021-11-03)",10.72
same,(av-uRBC) / (DMSO-uRBC) x100,"[1]; 3D7, conc. 246.914 nM, Biological replicate 3 (2021-11-11)",6.2069
same,(av-uRBC) / (DMSO-uRBC) x100,"[1]; 3D7, conc. 740.741 nM, Biological replicate 1 (2021-10-25)",8.477
same,(av-uRBC) / (DMSO-uRBC) x100,"[1]; 3D7, conc. 740.741 nM, Biological replicate 2 (2021-11-03)",10.3467
same,(av-uRBC) / (DMSO-uRBC) x100,"[1]; 3D7, conc. 740.741 nM, Biological replicate 3 (2021-11-11)",4.271
same,(av-uRBC) / (DMSO-uRBC) x100,"[1]; 3D7, conc. 2222.22 nM, Biological replicate 1 (2021-10-25)",8.256
same,(av-uRBC) / (DMSO-uRBC) x100,"[1]; 3D7, conc. 2222.22 nM, Biological replicate 2 (2021-11-03)",10.0343
same,(av-uRBC) / (DMSO-uRBC) x100,"[1]; 3D7, conc. 2222.22 nM, Biological replicate 3 (2021-11-11)",3.637
same,(av-uRBC) / (DMSO-uRBC) x100,"[1]; 3D7, conc. 6666.67 nM, Biological replicate 1 (2021-10-25)",8.6332
same,(av-uRBC) / (DMSO-uRBC) x100,"[1]; 3D7, conc. 6666.67 nM, Biological replicate 2 (2021-11-03)",8.244
same,(av-uRBC) / (DMSO-uRBC) x100,"[1]; 3D7, conc. 6666.67 nM, Biological replicate 3 (2021-11-11)",2.725
same,(av-uRBC) / (DMSO-uRBC) x100,"[1]; 3D7, conc. 20000 nM, Biological replicate 1 (2021-10-25)",7.467
same,(av-uRBC) / (DMSO-uRBC) x100,"[1]; 3D7, conc. 20000 nM, Biological replicate 2 (2021-11-03)",5.95
same,(av-uRBC) / (DMSO-uRBC) x100,"[1]; 3D7, conc. 20000 nM, Biological replicate 3 (2021-11-11)",-1.791
same,improvement in antiparasitic activity relative to the activity of M-833,[1]; EC50 based,10 fold
same,EC50,[1]; [3],16 nM
same,EC50,[1]; [4],150 nM
same,EC50,"[1]; 3D7, text on structure activity relationship (Fig 4A), read-out: EC50, antiparasitic activity",120 nM
CN(C(=O)C(C)(C)Nc1ccc(Cl)c(S(=O)(=O)N2CCOCC2)c1)c1ccc(F)c(Cl)c1 [compound 4],interaction with PfSTART1(WT),[2],did not interact
same,"Growth inhibition % (LDH, relative to DMSO)","[1]; 3D7, 0.00152416 uM, biological replicate 3 (2023-02-07)",-17.5745
same,"Growth inhibition % (LDH, relative to DMSO)","[1]; 3D7, 0.00304832 uM, biological replicate 1 (2021-10-25)",-18.3864
same,"Growth inhibition % (LDH, relative to DMSO)","[1]; 3D7, 0.00457247 uM, biological replicate 3 (2023-02-07)",-17.9271
same,"Growth inhibition % (LDH, relative to DMSO)","[1]; 3D7, 0.00914495 uM, biological replicate 1 (2021-10-25)",-26.0151
same,"Growth inhibition % (LDH, relative to DMSO)","[1]; 3D7, 0.0137174 uM, biological replicate 3 (2023-02-07)",-25.0392
same,"Growth inhibition % (LDH, relative to DMSO)","[1]; 3D7, 0.0274348 uM, biological replicate 1 (2021-10-25)",-36.8606
same,"Growth inhibition % (LDH, relative to DMSO)","[1]; 3D7, 0.0411523 uM, biological replicate 3 (2023-02-07)",-21.1207
same,"Growth inhibition % (LDH, relative to DMSO)","[1]; 3D7, 0.078125 uM, biological replicate 2 (2023-02-07)",-4.3247
same,"Growth inhibition % (LDH, relative to DMSO)","[1]; 3D7, 0.0823045 uM, biological replicate 1 (2021-10-25)",-42.8019
same,"Growth inhibition % (LDH, relative to DMSO)","[1]; 3D7, 0.123457 uM, biological replicate 3 (2023-02-07)",-34.2281
same,"Growth inhibition % (LDH, relative to DMSO)","[1]; 3D7, 0.15625 uM, biological replicate 2 (2023-02-07)",-4.463
same,"Growth inhibition % (LDH, relative to DMSO)","[1]; 3D7, 0.246914 uM, biological replicate 1 (2021-10-25)",-45.3858
same,"Growth inhibition % (LDH, relative to DMSO)","[1]; 3D7, 0.3125 uM, biological replicate 2 (2023-02-07)",-3.423
same,"Growth inhibition % (LDH, relative to DMSO)","[1]; 3D7, 0.37037 uM, biological replicate 3 (2023-02-07)",-26.6654
same,"Growth inhibition % (LDH, relative to DMSO)","[1]; 3D7, 0.625 uM, biological replicate 2 (2023-02-07)",-4.556
same,"Growth inhibition % (LDH, relative to DMSO)","[1]; 3D7, 0.740741 uM, biological replicate 1 (2021-10-25)",-43.9445
same,"Growth inhibition % (LDH, relative to DMSO)","[1]; 3D7, 1.11111 uM, biological replicate 3 (2023-02-07)",-37.6176
same,"Growth inhibition % (LDH, relative to DMSO)","[1]; 3D7, 1.25 uM, biological replicate 2 (2023-02-07)",10.8002
same,"Growth inhibition % (LDH, relative to DMSO)","[1]; 3D7, 2.22222 uM, biological replicate 1 (2021-10-25)",-10.0721
same,"Growth inhibition % (LDH, relative to DMSO)","[1]; 3D7, 2.5 uM, biological replicate 2 (2023-02-07)",18.1545
same,"Growth inhibition % (LDH, relative to DMSO)","[1]; 3D7, 3.33333 uM, biological replicate 3 (2023-02-07)",-31.3871
same,"Growth inhibition % (LDH, relative to DMSO)","[1]; 3D7, 5 uM, biological replicate 2 (2023-02-07)",37.6735
same,"Growth inhibition % (LDH, relative to DMSO)","[1]; 3D7, 6.66667 uM, biological replicate 1 (2021-10-25)",35.3489
same,"Growth inhibition % (LDH, relative to DMSO)","[1]; 3D7, 10 uM, biological replicate 2 (2023-02-07)",60.2451
same,"Growth inhibition % (LDH, relative to DMSO)","[1]; 3D7, 10 uM, biological replicate 3 (2023-02-07)",26.4107
same,"Growth inhibition % (LDH, relative to DMSO)","[1]; 3D7, 20 uM, biological replicate 1 (2021-10-25)",75.5669
same,"Growth inhibition % (LDH, relative to DMSO)","[1]; 3D7, 20 uM, biological replicate 2 (2023-02-07)",87.1878
same,EC50,[1]; [3],10000 nM
same,EC50,[1]; [4],> 10000 nM
